{
  "source": "BindingDB's records for doi:10.1021/acs.jmedchem.1c00110",
  "about": "(Korea Institute of Science and Technology, 2021)",
  "target": "5-hydroxytryptamine receptor 7 (Homo sapiens, UniProt P34969)",
  "sequence (P34969 whole entry)": "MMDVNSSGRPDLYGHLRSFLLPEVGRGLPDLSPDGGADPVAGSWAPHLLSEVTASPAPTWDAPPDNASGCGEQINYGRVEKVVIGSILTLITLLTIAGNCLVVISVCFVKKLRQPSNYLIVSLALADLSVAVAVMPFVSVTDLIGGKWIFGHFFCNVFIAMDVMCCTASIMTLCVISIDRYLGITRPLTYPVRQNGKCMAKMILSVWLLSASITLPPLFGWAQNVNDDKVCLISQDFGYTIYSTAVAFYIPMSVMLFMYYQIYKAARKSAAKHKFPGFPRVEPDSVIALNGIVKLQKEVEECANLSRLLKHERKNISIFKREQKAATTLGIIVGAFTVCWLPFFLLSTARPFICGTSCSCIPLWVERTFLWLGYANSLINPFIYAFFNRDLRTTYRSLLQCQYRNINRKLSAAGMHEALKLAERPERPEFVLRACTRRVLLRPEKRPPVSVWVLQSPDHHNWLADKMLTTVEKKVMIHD",
  "assay": "Displacement of [3H] D-lysergic acid diethylamide from 5-HT7R (unknown origin) transfected in HEK293 cells incubated for 1.5 hrs by microbeta scintillation counter analysis",
  "data": [
    {"smiles": "CNCCc1ccc(Cl)c(-c2ccccc2OC)c1", "values": [
      {"measurement": "Ki", "value": 2.8, "unit": "nM"}
    ]},
    {"smiles": "CCNCCc1ccc(Cl)c(-c2ccccc2OC)c1", "values": [
      {"measurement": "Ki", "value": 1.58, "unit": "nM"}
    ]}
  ]
}
